Data: patent publication US20240076299A1, “TUBERCULATIN ANALOGS AS ANTIVIRAL AGENTS” (priority 2020, published 2024)
Where two headings read alike, the source gives them in different places.

Key:
HIV = experiment: microbe, parasite or virus in culture; format: cell-based, HIV-1
[1] = Cytotoxicity evaluation using the SRB assay; conditions: human, triplicate
AIV = experiment: microbe, parasite or virus in culture; format: cell-based, avian influenza virus (H5N1); conditions: Influenza A virus, read-out: EC50 (nM) AIV
VSV = experiment: microbe, parasite or virus in culture; format: cell-based; conditions: Vesicular stomatitis virus, read-out: EC50 (nM) VSV
in vitro = conditions: human
SARS-CoV-2 [2] = experiment: microbe, parasite or virus in culture; conditions: for inhibition at 2 µM: Severe acute respiratory syndrome coronavirus 2, 48 h
A549 cells = conditions: human, 2 days
SARS-CoV-2 [3] = test system: SARS-CoV-2
[4] = A549 cells, CC50 (nM), Table 1, inhibition of cell growth of host A549 cells by 50%
[5] = read-out: EC50 (2000 nM) SARS-COV-2
[6] = read-out: EC50 (2000 nM) SARS-COV-2, % inhibitory effect at 2000 nM against SARS-CoV-2, triplicate
[7] = CC50 (nM) A549, Table 2, host A549 cells
[8] = CC50 (nM), Table 1, inhibition of cell growth of host A549 cells by 50%
[9] = A549 cells, CC50 (nM) A549, Table 2, host A549 cells

Row | SMILES | EC50 (HIV; Human immunodeficiency virus 1) | EC50 (AIV) | EC50 (VSV) | inhibition at 2 µM (SARS-CoV-2 [2]; [6]) | CC50 at 2 days [1, 8] | also measured
1 | COc1cc2c(OC3OC[C@@]4(CO[Si](c5ccccc5)(c5ccccc5)C(C)(C)C)OC(c5ccccc5)O[C@@H]34)c3c(c(-c4cc5c(cc4OCc4ccccc4)OCO5)c2cc1OC)C(=O)OC3 (stereo partly drawn) [Compound 42] | > 25000 nM |  |  |  |  | CC50 at 2 days [1, 4]: > 25000 nM
2 | COc1cc2c(O)c3c(c(-c4ccc5c(c4)OCO5)c2cc1OC)C(=O)OC3 [Diphyllin (7), diphyllin, reference compound] | 170 nM | 2.36 nM | 11.2 nM |  |  | CC50 at 2 days (in vitro; CC50 (nM)): 2460 nM; CC50 at 2 days (in vitro; CC50 (nM) A549): 1980 nM; inhibition at 2 µM (SARS-CoV-2 [2]; [5]): 94.6%
3 | COc1cc2c(OC3OCC(O)(CO)C3OC3OCC(O)C(O)C3O)c3c(c(-c4cc5c(cc4O)OCO5)c2cc1OC)C(=O)OC3 (single isomer, unassigned) [Compound 49] |  |  |  |  |  | EC50 (HIV): 5450 nM; antiviral activity of R atropisomer versus corresponding S atropisomer (HIV): much more potent antiviral activities; CC50 at 2 days (in vitro; CC50 (nM)): 23500 nM
4 | COc1cc2c(O[C@H]3OC[C@@]4(CO)OC(C)(C)O[C@@H]34)c3c(c(-c4ccc5c(c4)OCO5)c2cc1OC)C(=O)OC3 [Compound 10] | 0.97 nM | 0.75 nM | 1.5 nM | 95.6% | 188 nM | CC50 at 2 days [1, 7]: 400 nM
5 | COc1cc2c(O[C@H]3OC[C@@]4(CO)OC(c5ccccc5)O[C@@H]34)c3c(c(-c4ccc5c(c4)OCO5)c2cc1OC)C(=O)OC3 (stereo partly drawn) [Compound 18] | 7.37 nM | 0.71 nM | 2.43 nM | 98.3% |  | CC50 at 2 days [1, 9]: 208 nM; CC50 at 2 days [1, 4]: 184 nM
6 | COc1cc2c(OC3OCC(O)(COC4OCC(O)C(O)C4O)C3OC3OCC(O)C(OC4OCC(O)(CO)C4O)C3O)c3c(c(-c4cc5c(cc4O)OCO5)c2cc1OC)C(=O)OC3 (single isomer, unassigned) [Compound 54] |  |  |  |  |  | EC50 (HIV): > 25000 nM; CC50 (A549 cells): > 25000 nM
7 | COc1cc2c(O[C@H]3OC[C@@]4(CO)OC(c5ccccc5)O[C@@H]34)c3c(c(-c4cc5c(cc4OCc4ccccc4)OCO5)c2cc1OC)C(=O)OC3 (stereo partly drawn) [Compound 44] | > 25000 nM |  |  |  |  | CC50 at 2 days [1, 4]: > 25000 nM
8 | COc1cc2c(OC3OCC(O)(CO)C3O)c3c(c(-c4cc5c(cc4O)OCO5)c2cc1OC)C(=O)OC3 (single isomer, unassigned) [Compound 48] |  |  |  |  |  | EC50 (HIV): > 25000 nM; CC50 (A549 cells): > 25000 nM
9 | COc1cc2c(O[C@H]3OC[C@@]4(CN(C)C)OC(C)(C)O[C@@H]34)c3c(c(-c4ccc5c(c4)OCO5)c2cc1OC)C(=O)OC3 [Compound 31] | 177 nM |  |  | 91.9% | 1400 nM | 
10 | COc1cc2c(OC3OC[C@@]4(CO[Si](c5ccccc5)(c5ccccc5)C(C)(C)C)OC(c5ccccc5)O[C@@H]34)c3c(c(-c4ccc5c(c4)OCO5)c2cc1OC)C(=O)OC3 (stereo partly drawn) [Compound 16] | 6580 nM |  |  | 32.4% |  | CC50 at 2 days [1, 4]: > 20000 nM
11 | COc1cc2c(OC3OCC(O)(CO)C3O)c3c(c(-c4cc5c(cc4O)OCO5)c2cc1OC)C(=O)OC3 (single isomer, unassigned) [Compound 45] |  |  |  |  |  | EC50 (HIV): 2730 nM; antiviral activity of R atropisomer versus corresponding S atropisomer (HIV): much more potent antiviral activities; CC50 at 2 days (in vitro; CC50 (nM)): 46800 nM
12 | COc1cc2c(O[C@H]3OC[C@](O)(CO)[C@H]3O)c3c(c(-c4ccc5c(c4)OCO5)c2cc1OC)C(=O)OC3 [Compound 19] | 11.9 nM | 70 nM | 144 nM | 98.3% | 368 nM | CC50 at 2 days [1, 7]: 2100 nM
13 | COc1cc2c(O[C@H]3OC[C@@]4(CNC(C)=O)OC(C)(C)O[C@@H]34)c3c(c(-c4ccc5c(c4)OCO5)c2cc1OC)C(=O)OC3 [Compound 32] | 80.9 nM |  |  |  |  | activity against SARS-CoV-2 (conclusion) (SARS-CoV-2 [3]): active molecules; CC50 at 2 days (in vitro; CC50 (nM)): 441 nM; inhibition at 2 µM (SARS-CoV-2 [2]; [5]): 97.4%
14 | COc1cc2c(O[C@H]3OC[C@@]4(COC(=O)c5cccnc5)OC(C)(C)O[C@@H]34)c3c(c(-c4ccc5c(c4)OCO5)c2cc1OC)C(=O)OC3 [Compound 29] | 91.8 nM | 8.66 nM | 19.9 nM | 95.6% |  | CC50 at 2 days [1, 9]: 483 nM; CC50 at 2 days [1, 4]: 381 nM
15 | COc1cc2c(O[C@H]3OC[C@@]4(COC(C)=O)OC(c5ccccc5)O[C@@H]34)c3c(c(-c4ccc5c(c4)OCO5)c2cc1OC)C(=O)OC3 (stereo partly drawn) [Compound 21] | 126 nM | 6.25 nM | 12 nM | 96.3% | 328 nM | CC50 at 2 days [1, 7]: 93 nM
16 | COc1cc2c(O[C@@H]3OC[C@@]4(CO)OC(c5ccccc5)O[C@@H]34)c3c(c(-c4ccc5c(c4)OCO5)c2cc1OC)C(=O)OC3 (stereo partly drawn) [Compound 17] | 251 nM |  |  | 66.2% |  | CC50 at 2 days [1, 4]: 2240 nM

Row | SMILES | EC50 (HIV; Human immunodeficiency virus 1) | EC50 (AIV) | EC50 (VSV) | inhibition at 2 µM (SARS-CoV-2 [2]; [6]) | CC50 at 2 days [1, 8] | also measured
17 | COc1cc2c(O[C@@H]3OC[C@@]4(CO)OC(c5ccccc5)O[C@@H]34)c3c(c(-c4cc5c(cc4OCc4ccccc4)OCO5)c2cc1OC)C(=O)OC3 (stereo partly drawn) [Compound 43] | > 25000 nM |  |  |  |  | CC50 at 2 days [1, 4]: > 25000 nM
18 | COc1cc2c(O[C@H]3OC[C@@]4(COC(=O)c5ccncc5)OC(C)(C)O[C@@H]34)c3c(c(-c4ccc5c(c4)OCO5)c2cc1OC)C(=O)OC3 [Compound 28] | 486 nM | 16.7 nM | 56.1 nM |  |  | CC50 at 2 days (in vitro; CC50 (nM)): 2210 nM; CC50 at 2 days (in vitro; CC50 (nM) A549): 560 nM; inhibition at 2 µM (SARS-CoV-2 [2]; [5]): 93%
19 | COc1cc2c(O[C@H]3OC[C@@]4(CN5CCOCC5)OC(C)(C)O[C@@H]34)c3c(c(-c4ccc5c(c4)OCO5)c2cc1OC)C(=O)OC3 [Compound 30] | 18 nM |  |  |  |  | CC50 at 2 days (in vitro; CC50 (nM)): 1190 nM; inhibition at 2 µM (SARS-CoV-2 [2]; [5]): 92.7%
20 | COc1cc2c(O[C@@H]3OC[C@@]4(COC(C)=O)OC(C)(C)O[C@@H]34)c3c(c(-c4ccc5c(c4)OCO5)c2cc1OC)C(=O)OC3 [Compound 11] | 208 nM |  |  | > 80% | 1260 nM | activity against SARS-CoV-2 (conclusion) (SARS-CoV-2 [3]): active molecules
21 | COc1cc2c(OC3OCC(O)(COC4OCC(O)C(O)C4O)C3OC3OCC(O)C(OC4OCC(O)(CO)C4O)C3O)c3c(c(-c4cc5c(cc4O)OCO5)c2cc1OC)C(=O)OC3 (single isomer, unassigned) [Compound 53] | 14700 nM |  |  |  |  | antiviral activity of R atropisomer versus corresponding S atropisomer (HIV): much more potent antiviral activities; CC50 at 2 days (in vitro; CC50 (nM)): > 25000 nM
22 | CCOC(=O)c1c(CSc2ccccc2)n(C)c2cc(Br)c(O)c(CN(C)C)c12 [arbidol, reference compound] |  |  |  |  |  | IC50 (SARS-CoV-2 [2]; Severe acute respiratory syndrome coronavirus 2, HepG2, read-out: IC50 against SARS-CoV-2 pseudovirion): 5230 nM
23 | COc1cc2c(OC3OCC(O)(COC4OCC(O)C(O)C4O)C3OC3OCC(O)C(O)C3O)c3c(c(-c4cc5c(cc4O)OCO5)c2cc1OC)C(=O)OC3 (single isomer, unassigned) [Compound 51] | 15700 nM |  |  |  | > 25000 nM | antiviral activity of R atropisomer versus corresponding S atropisomer (HIV): much more potent antiviral activities
24 | COc1cc2c(O[C@H]3OC[C@@]4(CN)OC(C)(C)O[C@@H]34)c3c(c(-c4ccc5c(c4)OCO5)c2cc1OC)C(=O)OC3 [Compound 26] | 917 nM | 0.79 nM | 0.58 nM | > 80% | 4550 nM | activity against SARS-CoV-2 (conclusion) (SARS-CoV-2 [3]): active molecules; CC50 at 2 days [1, 7]: 2.66 nM
25 | COc1cc2c(O[C@@H]3OC[C@@]4(CO)OC(C)(C)O[C@@H]34)c3c(c(-c4ccc5c(c4)OCO5)c2cc1OC)C(=O)OC3 [Compound 9] | 34.6 nM |  |  | > 80% | 1180 nM | activity against SARS-CoV-2 (conclusion) (SARS-CoV-2 [3]): active molecules
26 | COc1cc2c(O[C@@H]3OC[C@@]4(COC(C)=O)OC(c5ccccc5)O[C@@H]34)c3c(c(-c4ccc5c(c4)OCO5)c2cc1OC)C(=O)OC3 (stereo partly drawn) [Compound 20] | 280 nM | 39.9 nM | 53.8 nM | > 80% | 2580 nM | activity against SARS-CoV-2 (conclusion) (SARS-CoV-2 [3]): active molecules; CC50 at 2 days [1, 7]: 1570 nM
27 | COc1cc2c(O[C@H]3OC[C@@]4(CN=[N+]=[N-])OC(C)(C)O[C@@H]34)c3c(c(-c4ccc5c(c4)OCO5)c2cc1OC)C(=O)OC3 [Compound 25] | 441 nM | 0.72 nM | 4.52 nM | > 80% |  | activity against SARS-CoV-2 (conclusion) (SARS-CoV-2 [3]): active molecules; CC50 at 2 days [1, 9]: 648 nM; CC50 at 2 days [1, 4]: 1650 nM
28 | COc1cc2c(O[C@H]3OC[C@@]4(COC(C)=O)OC(C)(C)O[C@@H]34)c3c(c(-c4ccc5c(c4)OCO5)c2cc1OC)C(=O)OC3 [Compound 12] | 26.9 nM |  |  | 96.3% | 472 nM | activity against SARS-CoV-2 (conclusion) (SARS-CoV-2 [3]): active molecules
29 | COc1cc2c(O[C@H]3OC[C@@]4(COC(=O)c5ccccc5)OC(C)(C)O[C@@H]34)c3c(c(-c4ccc5c(c4)OCO5)c2cc1OC)C(=O)OC3 [Compound 27] | 384 nM | 16.9 nM | 20.8 nM |  |  | activity against SARS-CoV-2 (conclusion) (SARS-CoV-2 [3]): active molecules; CC50 at 2 days (in vitro; CC50 (nM)): 2220 nM; CC50 at 2 days (in vitro; CC50 (nM) A549): 379 nM; inhibition at 2 µM (SARS-CoV-2 [2]; [5]): 93%
30 | Cc1ccnc2c1NC(=O)c1cccnc1N2C1CC1 [Nevirapine, reference compound] | 35.8 nM |  |  |  | > 200 nM | 
31 | COc1cc2c(O[C@H]3OC[C@](O)(COC(C)=O)[C@H]3O)c3c(c(-c4ccc5c(c4)OCO5)c2cc1OC)C(=O)OC3 [Compound 23] | 43.4 nM | 0.3 nM | 1.24 nM | 96.7% | 736 nM | CC50 at 2 days [1, 7]: 158 nM
